Results on nine molecules are retold here after patent US4592906A, “Ultra-violet absorbing compounds and compositions containing said compounds” (Graesser Laboratories, Ltd., priority 1984, dated 1986).

≈ marks a conversion by molar mass, not a printed value.

Common to all, as to type: physicochemical
Data set [1] in a line: Ultra-violet absorption (absorptivity, absorption maximum). Particulars: for Absorptivity: c in g/l, path length b in centimeters. The method, then: The absorptivity of the following p-dimethylaminocinnamate was measured using the formula [formula] wherein c is concentration in g/l and b is path length in centimeters: […]
Data set [2] is described as follows: Solubility in liquid paraffin (mineral oil) at 23. Particulars: organic solvent or mixture. The source says:
In particular, their solubilities in liquid paraffin are as follows:
Ester paraffin at 23 (% wt/vol)

The nature of data set [3]: Physical state at room temperature.
Data set [4] can be described thus: Miscibility with liquid paraffin (mineral oil), methanol and water.

For `CCOC(=O)C=Cc1ccc(N(C)C)cc1` [(2), ethyl p-dimethylaminocinnamate, reference compound], the Absorptivity in data set [1] was 125 L/g/cm.

With `CC(C)CCOC(=O)C=Cc1ccc(N(C)C)cc1` [(a), 3-methylbutyl-p-dimethylaminocinnamate], the solubility (in general, the concentration that dissolves in the medium under given conditions) in data set [2] came out at 24 mg/mL (≈ 91.8 mM).

As to `CCCCCCCCCCOC(=O)C=Cc1ccc(N(C)C)cc1` [(f), 1-decyl p-dimethylaminocinnamate], in data set [2], the solubility was found to be 21 mg/mL (≈ 63.3 mM).

As for `CC1CC(OC(=O)C=Cc2ccc(N(C)C)cc2)CC(C)(C)C1` (centres unmarked) [(e), 3,3,5-trimethylcyclohexyl p-dimethylaminocinnamate], the solubility in data set [2] was 12 mg/mL (≈ 38 mM).

Consider `CCCCCCC(C)OC(=O)C=Cc1ccc(N(C)C)cc1` (centres unmarked) [Example 2-Octyl, 2-octyl 4-dimethylaminocinnamate], for which, in data set [3], the “physical state at room temperature” value is “liquid at room temperature”. Further, in data set [4], the “miscibility with liquid paraffin (mineral oil)” value is recorded as “completely miscible” and the miscibility with methanol entry is “completely miscible”. This molecule also returned an Absorptivity in data set [1] of 95 L/g/cm.

On to `CC(CCOC(=O)C=Cc1ccc(N(C)C)cc1)CC(C)(C)C` (centres unmarked) [(d), 3,5,5-trimethylhexyl p-dimethylaminocinnamate], for which the solubility in data set [2] is 29 mg/mL (≈ 91.3 mM).

Consider `CCCCC(CC)COC(=O)C=Cc1ccc(N(C)C)cc1` (centres unmarked) [Example 2-Ethylhexyl, 2-Ethylhexyl 4-dimethylaminocinnamate], for which the “physical state at room temperature” value in data set [3] is recorded as “liquid at room temperature”. Besides, in data set [4], the “miscibility with liquid paraffin (mineral oil)” value is “completely miscible” and the miscibility with methanol result was “completely miscible”. In data set [1] (Example 1, prepared product), this molecule yielded a λmax of 360 nm. In data set [1], this molecule came in with an Absorptivity of 101 L/g/cm.

In the case of `CCCCCCCOC(=O)C=Cc1ccc(N(C)C)cc1` [(b), 1-heptyl p-dimethylaminocinnamate], the solubility in data set [2] worked out at 21 mg/mL (≈ 72.6 mM).

As to `CCCCCCCCOC(=O)C=Cc1ccc(N(C)C)cc1` [(c), 1-octyl p-dimethylaminocinnamate, reference compound], the solubility in data set [2] was 25 mg/mL (≈ 82.4 mM). Further, in data set [1], the Absorptivity turned out to be 89 L/g/cm.
